For five compounds, T/C results are on record in PubChem BioAssay AID192 (DTP/NCI, 2004).

Where “and” joins values, the source holds several entries; their conditions need not be identical. Identical values can stand only once. Inconclusive results and toxic doses are left out.

For this assay, the system named is BDF1 mice, B16 melanoma ip, median survival T/C. The experiment in a line: NCI In Vivo Anticancer Drug Screen. Data for tumor model B16 Melanoma (intraperitoneal) in B6D2F1 (BDF1) mice. The following applies: endpoint: median survival time, higher = longer survival. In outline: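 Read-out: survival or tumor size, given as treated/control ratio. Controls received vehicle only; animals bore transplantable tumors.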

As for `CC[C@]1(O)C[C@H]2CN(CCc3c([nH]c4ccccc34)[C@@](C(=O)OC)(c3cc4c(cc3OC)N(C=O)[C@H]3[C@@](O)(C(=O)OC)[C@H](OC(C)=O)[C@]5(CC)C=CCN6CC[C@]43[C@@H]65)C2)C1`, the T/C reads like this: (dose: 0.06 mg/kg/injection, schedule: Q01DX009 (ip), vehicle: saline) 154 % of control; (dose: 0.06 mg/kg/injection, schedule: Q01DX009 (ip), vehicle: water) 168 % of control; (dose: 0.06 mg/kg/injection, schedule: Q01DX017 (ip), vehicle: saline) 156 % of control; (dose: 0.08 mg/kg/injection, schedule: Q01DX009 (ip), vehicle: water) 123 % of control; (dose: 0.12 mg/kg/injection, schedule: Q04DX003 (ip), vehicle: saline) 123 % of control; (dose: 0.13 mg/kg/injection, schedule: Q01DX017 (ip), vehicle: saline) 181 % of control. For the same compound, the T/C was 110 % of control (dose: 0.13 mg/kg/injection, schedule: Q04DX003 (ip), vehicle: saline); 121 % of control (dose: 0.18 mg/kg/injection, schedule: Q01DX005 (ip), vehicle: saline); 152 % of control and 171 % of control (dose: 0.2 mg/kg/injection, schedule: Q01DX009 (ip), vehicle: saline); 119 % of control and 121 % of control (dose: 0.23 mg/kg/injection, schedule: Q04DX003 (ip), vehicle: water); 176 % of control and 189 % of control (dose: 0.25 mg/kg/injection, schedule: Q01DX009 (ip), vehicle: water); 197 % of control (dose: 0.25 mg/kg/injection, schedule: Q01DX017 (ip), vehicle: saline). The T/C reads like this: (dose: 0.3 mg/kg/injection, schedule: Q01DX005 (ip), vehicle: saline) 119 % of control; (dose: 0.36 mg/kg/injection, schedule: Q01DX009 (ip), vehicle: water) 163 % of control; (dose: 0.36 mg/kg/injection, schedule: Q04DX003 (ip), vehicle: saline) 114 % of control; (dose: 0.39 mg/kg/injection, schedule: Q04DX003 (ip), vehicle: saline) 124 % of control; (dose: 0.39 mg/kg/injection, schedule: Q04DX003 (ip), vehicle: water) 119 % of control; (dose: 0.4 mg/kg/injection, schedule: Q01DX009 (ip), vehicle: saline) 178 % of control. Moreover, the T/C (dose: 0.5 mg/kg/injection, schedule: Q01DX001 (ip), vehicle: saline) was 120 % of control; the T/C (dose: 0.5 mg/kg/injection, schedule: Q01DX009 (ip), vehicle: water) is 155 % of control and 163 % of control and 192 % of control; the T/C (dose: 0.5 mg/kg/injection, schedule: Q04DX003 (ip), vehicle: saline) was 154 % of control; the T/C (dose: 0.5 mg/kg/injection, schedule: Q04DX005 (ip), vehicle: saline) is 163 % of control; the T/C (dose: 0.54 mg/kg/injection, schedule: Q04DX003 (ip), vehicle: saline) was 157 % of control; the T/C (dose: 0.6 mg/kg/injection, schedule: Q04DX003 (ip), vehicle: saline) is 150 % of control and 152 % of control and 176 % of control. Also, the T/C by setting is: (dose: 0.65 mg/kg/injection, schedule: Q01DX001 (ip), vehicle: water) 118 % of control and 120 % of control; (dose: 0.65 mg/kg/injection, schedule: Q04DX003 (ip), vehicle: saline) 102 % of control; (dose: 0.75 mg/kg/injection, schedule: Q04DX003 (ip), vehicle: saline) 152 % of control; (dose: 0.8 mg/kg/injection, schedule: Q04DX003 (ip), vehicle: water) 116 % of control; (dose: 1.0 mg/kg/injection, schedule: Q01DX001 (ip), vehicle: saline) 120 % of control; (dose: 1.0 mg/kg/injection, schedule: Q04DX005 (ip), vehicle: saline) 181 % of control. The T/C is, setting by setting: (dose: 1.08 mg/kg/injection, schedule: Q01DX001 (ip), vehicle: water) 124 % of control; (dose: 1.08 mg/kg/injection, schedule: Q04DX003 (ip), vehicle: saline) 156 % of control; (dose: 1.2 mg/kg/injection, schedule: Q04DX003 (ip), vehicle: saline) 160 % of control and 198 % of control; (dose: 1.5 mg/kg/injection, schedule: Q04DX003 (ip), vehicle: saline) 150 % of control and 158 % of control; (dose: 1.67 mg/kg/injection, schedule: Q04DX003 (ip), vehicle: saline) 54 % of control; (dose: 1.8 mg/kg/injection, schedule: Q01DX001 (ip), vehicle: water) 122 % of control and 124 % of control. In addition, the T/C (dose: 1.8 mg/kg/injection, schedule: Q04DX003 (ip), vehicle: saline) was 159 % of control; the T/C (dose: 1.8 mg/kg/injection, schedule: Q04DX003 (ip), vehicle: water) is 151 % of control; the T/C (dose: 2.0 mg/kg/injection, schedule: Q04DX003 (ip), vehicle: saline) is 173 % of control and 180 % of control; the T/C (dose: 3.0 mg/kg/injection, schedule: Q04DX003 (ip), vehicle: saline) is 67 % of control; the T/C (dose: 15.63 micrograms/kg/injection, schedule: Q01DX009 (ip), vehicle: water) was 110 % of control; the T/C (dose: 62.5 micrograms/kg/injection, schedule: Q01DX009 (ip), vehicle: water) was 150 % of control. The T/C is, setting by setting: (dose: 78.0 micrograms/kg/injection, schedule: Q01DX009 (ip), vehicle: saline) 165 % of control; (dose: 78.0 micrograms/kg/injection, schedule: Q01DX009 (ip), vehicle: water) 123 % of control; (dose: 125.0 micrograms/kg/injection, schedule: Q01DX009 (ip), vehicle: water) 159 % of control; (dose: 130.0 micrograms/kg/injection, schedule: Q01DX009 (ip), vehicle: saline) 157 % of control; (dose: 216.0 micrograms/kg/injection, schedule: Q01DX009 (ip), vehicle: saline) 183 % of control; (dose: 216.0 micrograms/kg/injection, schedule: Q04DX003 (ip), vehicle: saline) 123 % of control. Also, the T/C is 175 % of control (dose: 250.0 micrograms/kg/injection, schedule: Q01DX009 (ip), vehicle: water); 160 % of control (dose: 360.0 micrograms/kg/injection, schedule: Q01DX009 (ip), vehicle: saline); 158 % of control (dose: 389.0 micrograms/kg/injection, schedule: Q04DX003 (ip), vehicle: saline); 155 % of control (dose: 600.0 micrograms/kg/injection, schedule: Q04DX003 (ip), vehicle: saline); 153 % of control (dose: 648.0 micrograms/kg/injection, schedule: Q04DX003 (ip), vehicle: saline); 152 % of control and 166 % of control (dose: 1000.0 micrograms/kg/injection, schedule: Q04DX003 (ip), vehicle: saline). Besides, the T/C reads like this: (dose: 1080.0 micrograms/kg/injection, schedule: Q04DX003 (ip), vehicle: saline) 157 % of control; (dose: 1670.0 micrograms/kg/injection, schedule: Q04DX003 (ip), vehicle: saline) 179 % of control; (dose: 1800.0 micrograms/kg/injection, schedule: Q04DX003 (ip), vehicle: saline) 174 % of control.
Take `O=CN(O)CC(=O)O.[Zn]`: the T/C was 99 % of control (dose: 5.0 mg/kg/injection, schedule: Q01DX009 (ip), vehicle: saline); 98 % of control (dose: 10.0 mg/kg/injection, schedule: Q01DX009 (ip), vehicle: saline); 88 % of control (dose: 20.0 mg/kg/injection, schedule: Q01DX009 (ip), vehicle: saline).
Consider `CN[C@@H]1[C@H](O)[C@H](NC)[C@H]2O[C@@]3(O)C(=O)C[C@@H](C)O[C@H]3O[C@@H]2[C@H]1O`, for which the T/C runs as follows: (dose: 100.0 mg/kg/injection, schedule: Q01DX009 (ip), vehicle: saline) 108 % of control; (dose: 200.0 mg/kg/injection, schedule: Q01DX009 (ip), vehicle: saline) 103 % of control; (dose: 400.0 mg/kg/injection, schedule: Q01DX009 (ip), vehicle: saline) 113 % of control.
Take `O=C(O)O.O=C(O)O.O=C(O)O.[Co]`: the T/C (dose: 25.0 mg/kg/injection, schedule: Q04DX003 (ip), vehicle: saline with Tween-80) was 88 % of control and the T/C (dose: 50.0 mg/kg/injection, schedule: Q04DX003 (ip), vehicle: saline with Tween-80) is 91 % of control.
As for `C/C=C(\C)C(=O)N/N=C\c1cc(Cl)cc(Cl)c1O`, the T/C is, setting by setting: (dose: 25.0 mg/kg/injection, schedule: Q01DX009 (ip), vehicle: olive oil, sesame oil, peanut oil) 88 % of control; (dose: 100.0 mg/kg/injection, schedule: Q01DX009 (ip), vehicle: olive oil, sesame oil, peanut oil) 89 % of control; (dose: 200.0 mg/kg/injection, schedule: Q01DX009 (ip), vehicle: olive oil, sesame oil, peanut oil) 86 % of control.
